Legend:
[1] = Teresawa et al., Japan Cir. J. 35, 339 (1971); cited from earlier work
[2] = test system: spontaneously hypertensive rats; assay: mean arterial blood pressure in spontaneously hypertensive rats after oral dosing; format: in vivo; conditions: 50 mg/kg orally, compared to vehicle-treated controls, approximate
Protocol: Further, spontaneously hypertensive rats were treated with a suspension or solution of 3-mercapto-4-benzyl-5-n- heptyl-1,2,4-triazole at a dose of 50 mg/kg orally, and mean arterial blood pressure was monitored for 260 minutes using indwelling cannulae in the tail arteries. […] Maximal blood pressure reduction was approximately 10 to 35 mm Hg.

SMILES	toxic effect [1]	time after treatment to significant blood pressure reductions [2] [min]
CCCCc1ccc(C(=O)O)nc1 [fusaric acid]	hepatotoxic	–
CCCCCCCc1nnc(S)n1Cc1ccccc1 [Example 35, 3-Mercapto-4-benzyl-5-n-heptyl-1,2,4-triazole]	–	≤ 30

Reference: patent EP0323737A1, “4-Aralkyl-5-substituted-1,2,4-triazole-5-thiols” (SMITHKLINE BECKMAN CORPORATION, priority 1987, dated 1989)
